Experimental data: patent US7163950B1, “Surfactants as malarial chloroguine resistance reversal agents” (priority 2000, dated 2007)
Like-named read-outs stand apart in the source and are kept apart here.

Key:
P. falciparum [1] = settings: read-out: chloroquine IC50, control (no NPE added); control without NPE, used to calculate the degree of chloroquine resistance
Procedure: (§1) NPE solutions with increasing average EO content were tested for anti-P. falciparum activity and the IC50S ? of these materials were determined using a non-linear regression analysis.
(§2) P. falciparum cultures were grown in A+ blood obtained by venipuncture of volunteers. Cultures of the laboratory lines ItG and 3D7 [Dolan, 1993] and the patient isolates were maintained by the method of Trager and Jensen [Trager, 1976] using RPMI 1640 supplemented with 10% human serum and 50 μM hypoxanthine. […] In vitro drug susceptibility testing was performed using the WHO In Vitro Micro Test (Mark III) [1997]. The IC50 values were determined using a non-linear regression analysis of the dose-response curve.

P. falciparum [2] = experiment: microbe, parasite or virus in culture; settings: Plasmodium falciparum, read-out: chloroquine IC50, control (no NPE added), control without NPE, used to calculate the degree of chloroquine resistance
Procedure: as §1, §2

Q: `CCN(CC)CCCC(C)Nc1ccnc2cc(Cl)ccc12` (centres unmarked) [chloroquine] was tested. Which IC50 (P. falciparum [1]) did it give?
A: Its IC50 is 274 ± 56 nM.

Q: And the IC50 (P. falciparum [2])?
A: Its IC50 is 240 ± 60 nM.
